Measured values: US11142554B2 (MASSACHUSETTS INSTITUTE OF TECHNOLOGY, priority 2015, dated 2021)
Positions of bridges follow the written chain, without caps; N, C: chain ends. Non-standard residues stand in square brackets, D forms with d. Residues, ends and D or L forms follow the SMILES beside them. S5 = C=CCCC[C@](C)(N)C(=O)O; Nle = CCCC[C@H](N)C(=O)O

Tests used:
[1] = tested on: H929 multiple myeloma cells; assay: Cell viability by CellTiter-Glo (CTG) assay; assay type: cell-based; conditions: 24 hours
Excerpt: (§1) Data are mean and s.d. for experiments performed in at least duplicate. Vehicle is DMSO.

MDA-MB231 cells = assay: Cell viability by CellTiter-Glo (CTG) assay; assay type: cell-based, human; conditions: 24 hours
Excerpt: as §1

Bcl-xL = Bcl-xL (Homo sapiens, UniProt Q07817); conditions: reported in the literature; cited from earlier work
Mcl-1 [2] = molecular target: T1, Mcl-1 (Homo sapiens, UniProt Q07820); assay: Competition of unlabeled peptides with a fluorescently labeled Bim variant; conditions: unlabeled peptide
Bcl-2 = Bcl-2 (Homo sapiens, UniProt P10415); conditions: reported in the literature; cited from earlier work
Mcl-1/Myc 2640 cells = tested on: Mcl-1/Myc 2640 cells
Protocol: (§2) A whole-cell BH3 profiling assay was used to test the specificity of our Mcl-1-binding peptides in several cell lines with differing dependencies on Bcl-2, Mcl-1, Bcl-xL, or Bfl-1. In this assay, permeabilized cells were treated with increasing doses of BH3 peptides, and mitochondrial outer membrane permeabilization (MOMP) was monitored using the dye JC-1 (see below). Mcl-1/Myc 2640 is an engineered murine leukemia cell line overexpressing murine Mcl-1 and Myc, and Bcl-2/Myc 2924 is a similarly engineered cell line overexpressing human Bcl-2.
(§3) Assay plates were produced by serial dilution of each peptide from 200 μM to 0.2 nM using 10-fold dilutions in DTEB (Derived from Trehalose Experimental Buffer: 135 mM trehalose, 50 mM KCl, 20 μM EDTA, 20 μM EGTA, 0.1% BSA, 5 mM succinate, 10 mM HEPES-KOH pH 7.5) containing 0.005% w/v digitonin, 10 mM 2-mercaptoethanol, 2 μM JC-1, and 20 mg mL-1 oligomycin. Triplicate wells for each peptide were made for each cell line by adding 15 μL of the peptide dilutions to each well of a black, untreated 384-well plate. Control wells containing no peptide or 20 μM FCCP (carbonyl cyanide-4(trifluoromethoxy) phenylhydrazone, a chemical uncoupler of oxidative phosphorylation) were included for zero and complete depolarization, respectively. Multiple plates were produced from the same stock and frozen at −80 ° C. for later use. Frozen plates were brought to RT prior to use, cells were suspended in DTEB at a density of 1.34×10^6 cells/mL, and 15 μL of cell suspension was added to each well of the dilution series to yield wells ranging from 0.1 nM to 100 μM peptide and 20000 cells/well. Fluorescence of JC-1 aggregates was measured at 590 nm with 545 nm excitation on a Tecan Safire2 at 5 min intervals for 3 h. The area under each signal-vs-time curve was calculated and normalized to the untreated and FCCP values to produce the percent depolarization. Curves were plotted as the log [peptide] vs percent depolarization, with sigmoidal dose—response curves fitted using Graphpad PRISM 6.

MDA-MB-231 cells = tested on: MDA-MB-231 cells
Protocol: as §2, §3

[3] = tested on: Human multiple myeloma cell lines dependent upon Mcl-1
Protocol: as §2, §3

Bcl-2/Myc 2924 cells = tested on: Bcl-2/Myc 2924 cells
Protocol: as §2, §3

Bcl-w = molecular target: T2, Bcl-w (Homo sapiens, UniProt Q92843); conditions: reported in the literature; cited from earlier work
T2 sequence (Q92843 1-193): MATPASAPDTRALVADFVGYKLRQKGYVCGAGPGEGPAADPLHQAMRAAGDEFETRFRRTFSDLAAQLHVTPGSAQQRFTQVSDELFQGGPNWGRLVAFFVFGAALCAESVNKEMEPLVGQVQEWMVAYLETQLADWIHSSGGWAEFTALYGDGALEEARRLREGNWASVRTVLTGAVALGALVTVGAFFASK

Bfl-1 = conditions: reported in the literature; cited from earlier work
[4] = Circular dichroism analysis of alpha-helicity; assay type: physicochemical; conditions: Tris buffer pH 7.4
Excerpt: FIG. 4|Results of studies assessing the alpha-helicity of various internally cross-linked peptides. Circular dichroism analysis illustrating helicity of stapled peptides 3 (SEQ ID NO:9), 7 (SEQ ID NO:7), and 10 (SEQ ID NO:8) and the non-stapled peptide of the amino acid sequence […] (SEQ ID NO:54), dissolved in Tris buffer pH.7.4.

[5] = molecular target: T3, interaction between Bak and Mcl-1 (Homo sapiens, UniProt Q07820); assay: Mcl-1 immunoprecipitation and Bak western analysis in OCI-AML3 cell lysate; assay type: biochemical
T3 construct: endogenous in cells; host or cells: OCI-AML3 cell lysate
Excerpt: The same blot was probed with the Bak (˜28 kD) antibody.

MEF cells = assay: Lactate dehydrogenase (LDH) release assay, non-specific cell lysis; assay type: cell-based
Excerpt: FIG. 5|Results of studies assessing non-specific cell-lysis by internally cross-linked peptides. Lactate dehydrogenase release assays (LDH) identified membrane-disruptive peptides 3 (SEQ ID NO:9) and 7 (SEQ ID NO:7); tested in MEF cells. Peptides 7, 10, 3, and 11-20 are SEQ ID NOs: 7, 8, 9, and 10-19 respectively.
Additional studies examined the non-specific cell lysis activity of peptide 3 (SEQ ID NO:9) (M1 SAHBd) and certain sequence variants of peptide 3 (SEQ ID NO:9) (M1 SAHBd).

Mcl-1 [6] = molecular target: T1, Mcl-1; assay: Receptor binding IC50 of M1 and stapled M1 peptides (Table 2); conditions: among M1 and its stapled variants
Excerpt: Peptides 1-10 are SEQ ID NOs: 46, 47, 9, 48, 49, 50, 7, 51, 52, and 8 respectively.

T1 sequence (Q07820 whole entry): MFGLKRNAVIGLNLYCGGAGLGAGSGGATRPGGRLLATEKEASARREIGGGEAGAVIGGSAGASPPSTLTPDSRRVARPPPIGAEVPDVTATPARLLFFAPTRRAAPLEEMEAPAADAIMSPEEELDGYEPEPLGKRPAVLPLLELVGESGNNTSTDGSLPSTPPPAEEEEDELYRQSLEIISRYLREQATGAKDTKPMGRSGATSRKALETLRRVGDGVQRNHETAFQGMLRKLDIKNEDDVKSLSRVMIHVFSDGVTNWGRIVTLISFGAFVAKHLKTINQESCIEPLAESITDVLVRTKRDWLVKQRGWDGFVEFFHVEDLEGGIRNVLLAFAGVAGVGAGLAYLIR
T3 sequence (Q07820 whole entry): as above
Bcl-xL, sequence (Q07817 whole entry, species assumed): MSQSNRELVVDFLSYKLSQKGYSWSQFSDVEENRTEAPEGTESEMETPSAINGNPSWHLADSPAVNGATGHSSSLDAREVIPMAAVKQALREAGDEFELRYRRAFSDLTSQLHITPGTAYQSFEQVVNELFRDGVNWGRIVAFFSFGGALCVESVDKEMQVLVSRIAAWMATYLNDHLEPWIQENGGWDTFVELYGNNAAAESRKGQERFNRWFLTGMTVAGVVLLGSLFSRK
Bcl-2, sequence (P10415 whole entry, species assumed): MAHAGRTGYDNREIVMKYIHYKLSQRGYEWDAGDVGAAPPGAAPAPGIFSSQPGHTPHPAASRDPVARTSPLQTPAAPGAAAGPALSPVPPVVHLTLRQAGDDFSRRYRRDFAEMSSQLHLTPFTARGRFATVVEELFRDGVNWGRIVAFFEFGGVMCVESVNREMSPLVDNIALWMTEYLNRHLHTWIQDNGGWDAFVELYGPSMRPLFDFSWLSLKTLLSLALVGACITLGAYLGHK

CN(C)CC[C@H](CSc1ccccc1)Nc1ccc(S(=O)(=O)NC(=O)c2ccc(N3CCN(Cc4ccccc4-c4ccc(Cl)cc4)CC3)cc2)cc1[N+](=O)[O-] [ABT-737]
effect on cell viability (in words) [1]: not active
effect on cell viability (in words) (MDA-MB231 cells): clear dose-dependent reduction in cell viability

CC[C@H](C)[C@H](NC(=O)[C@H](CCCCN)NC(=O)[C@H](CCCNC(=N)N)NC(=O)[C@H](CC(C)C)NC(=O)[C@H](CCC(N)=O)NC(=O)[C@H](C)NC(=O)[C@H](C)NC(=O)[C@H](Cc1ccccc1)NC(=O)[C@H](CCC(=O)O)NC(=O)[C@@H]1CCCN1C(=O)[C@@H]1CCCN1C(=O)[C@H](CC(C)C)NC(=O)[C@H](CCC(=O)O)NC(=O)[C@H](C)NC(C)=O)C(=O)NCC(=O)N[C@@H](CC(=O)O)C(=O)N[C@@H](CCCCN)C(=O)N[C@H](C(=O)N[C@@H](Cc1ccc(O)cc1)C(=O)N[C@@H](CS)C(N)=O)C(C)C [NoxaA]
no binding up to (Bcl-xL) (Bcl-xL): > 2500 nM
binding to Mcl-1 in competition assay (in words) (Mcl-1 [2]): very weak
no binding up to (Bcl-2) (Bcl-2): > 2500 nM
EC50 (Mcl-1/Myc 2640 cells): 20 µM
EC50 (MDA-MB-231 cells): > 100 µM
EC50 [3]: > 100 µM
EC50 (Bcl-2/Myc 2924 cells): > 100 µM
no binding up to (Bcl-w) (Bcl-w): > 2500 nM
no binding up to (Bfl-1) (Bfl-1): > 2500 nM

CCCC[C@H](NC(=O)[C@H](Cc1c[nH]c2ccccc12)NC(=O)[C@@H](NC(C)=O)[C@@H](C)CC)C(=O)N[C@@]1(C)CCCC=CCCC[C@@](C)(C(=O)N[C@@H](CCCNC(=N)N)C(=O)N[C@@H](CC(C)C)C(=O)NCC(=O)N[C@@H](CC(=O)O)C(=O)N[C@@H](CCC(=O)O)C(=O)N[C@H](C(=O)N[C@@H](CC(N)=O)C(=O)N[C@@H](C)C(=O)N[C@@H](Cc2ccc(O)cc2)C(=O)N[C@@H](Cc2ccc(O)cc2)C(=O)N[C@@H](C)C(=O)N[C@@H](CCCNC(=N)N)C(=O)N[C@@H](CCCNC(=N)N)C(N)=O)[C@@H](C)CC)NC(=O)[C@H](CC(C)C)NC(=O)CNC(=O)[C@H](CCC(N)=O)NC1=O [peptide 3, IWNleXQGLXRLGDEINAYYARR] (Ac-IW[Nle][S5]QGL[S5]RLGDEINAYYARR-NH2; staple 4-8; N-terminus assumed)
alpha-helical content (in words) [4]: highest alpha-helical content
disruption of Bak/Mcl-1 interaction (in words) [5]: interaction between Bak and Mcl-1 was disrupted
LDH release, membrane disruption (in words) (MEF cells): membrane-disruptive
selectivity for Mcl-1 over Bcl-xL, Bcl-2, Bclw and Bfl 1 (in words) (Mcl-1 [6]): greatest selectivity for Mcl-1
